Assay results as given in patent publication US9732075B2, “Benzimidazole-proline derivatives” (IDORSIA PHARMACEUTICALS LTD, priority 2012, dated 2017).

Experiments:
[1] = biological target: human orexin-1 receptor (Homo sapiens (Human), UniProt O43613); experiment: In vitro assay: intracellular calcium measurements (FLIPR), antagonistic activity; type: cell-based; conditions: CHO cells expressing human orexin-1 receptor, orexin-A agonist, geometric mean, read-out: IC50 Ox1
How it was run: (§1)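 hOX1R/hOX2R CHO cells, fluo-4 AM + 5 mM probenecid, 50 min 37 °C then 30 min RT. Cpd 120 min, then orexin-A 3 nM final; FLIPR peak height vs vehicle. IC50, geometric mean of repeats.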

[2] = biological target: human orexin-2 receptor (Homo sapiens (Human), UniProt O43614); experiment: as above; type: cell-based; conditions: CHO cells expressing human orexin-2 receptor, orexin-A agonist, geometric mean, read-out: IC50 Ox2
How it was run: as §1

human orexin-2 receptor, sequence (O43614 whole entry): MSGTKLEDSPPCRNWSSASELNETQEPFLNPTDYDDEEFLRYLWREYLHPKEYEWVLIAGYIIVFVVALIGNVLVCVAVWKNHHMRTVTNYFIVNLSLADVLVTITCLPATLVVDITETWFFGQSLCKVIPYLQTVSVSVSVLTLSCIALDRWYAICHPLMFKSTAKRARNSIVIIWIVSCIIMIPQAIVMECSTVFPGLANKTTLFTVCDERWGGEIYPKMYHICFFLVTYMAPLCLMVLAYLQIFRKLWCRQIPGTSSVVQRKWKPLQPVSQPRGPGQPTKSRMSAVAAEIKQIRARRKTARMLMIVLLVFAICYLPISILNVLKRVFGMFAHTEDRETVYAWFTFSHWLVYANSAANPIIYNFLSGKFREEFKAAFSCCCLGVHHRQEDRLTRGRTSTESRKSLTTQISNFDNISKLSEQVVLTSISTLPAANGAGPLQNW
human orexin-1 receptor, sequence (O43613 whole entry): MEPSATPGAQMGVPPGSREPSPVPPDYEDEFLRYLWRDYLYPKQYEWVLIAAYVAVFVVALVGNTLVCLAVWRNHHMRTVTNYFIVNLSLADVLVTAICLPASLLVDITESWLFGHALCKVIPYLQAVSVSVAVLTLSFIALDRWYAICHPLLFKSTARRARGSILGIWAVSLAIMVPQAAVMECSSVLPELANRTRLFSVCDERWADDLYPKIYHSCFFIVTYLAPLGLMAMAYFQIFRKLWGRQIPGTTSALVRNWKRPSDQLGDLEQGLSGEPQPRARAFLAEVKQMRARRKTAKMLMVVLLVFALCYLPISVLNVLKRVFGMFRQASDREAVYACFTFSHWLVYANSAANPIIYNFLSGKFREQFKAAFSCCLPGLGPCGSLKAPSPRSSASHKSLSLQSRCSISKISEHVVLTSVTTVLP

Structure (SMILES) | IC50 [1] [nM] | IC50 [2] [nM]
Cc1cc(C)c2nc([C@@H]3CCCN3C(=O)c3nc(C)sc3-c3ccccc3)[nH]c2c1 [Ex. 1.142] | 24 | 13
Cc1nc(C(=O)N2CC[C@H](C)[C@H]2c2nc3c(Cl)cccc3[nH]2)c(-c2ccc(Cl)cc2)s1 [Ex. 4.120] | 14 | 725
COc1cc2nc([C@]3(C)CCCN3C(=O)c3nc(C)sc3-c3cc(F)cc(F)c3)[nH]c2cc1OC [Ex. 5.76] | 33 | 47
Cc1nc(C(=O)N2CC[C@H](C)[C@H]2c2nc3c(C)c(C)ccc3[nH]2)c(-c2cccc(Cl)c2)s1 [Ex. 4.24] | 2 | 367
CO[C@H]1CN(C(=O)c2nc(C)sc2-c2cccc(Cl)c2)[C@](C)(c2nc3c(C)c(Cl)ccc3[nH]2)C1 [Ex. 3.31] | 5 | 4
Cc1cc(C(=O)N2CCC[C@@]2(C)c2nc3c(C)c(Cl)ccc3[nH]2)c(-n2nccn2)cn1 [Ex. 5.263] | 56 | 304
Cc1ccc(-c2ccc(C#N)cc2)c(C(=O)N2CCC[C@@]2(C)c2nc3cc(C(F)(F)F)c(Cl)cc3[nH]2)c1 [Ex. 5.160] | 38 | 113
Cc1ccc(-n2nccn2)c(C(=O)N2CC[C@H](C)[C@H]2c2nc3c(C)c(Cl)ccc3[nH]2)c1 [Ex. 4.35] | 3 | 193
Cc1c(Cl)ccc2[nH]c([C@]3(C)CCCN3C(=O)c3cc(F)ccc3-n3nccn3)nc12 [Ex. 5.45] | 5 | 12
Cc1cccc(-c2ccc(C)cc2C(=O)N2CCC[C@@]2(C)c2nc3cc(C)c(C)cc3n2CCF)c1 [Ex. 7.28] | 14 | 19
CO[C@@H]1C[C@@H](c2nc3ccc(Cl)c(C)c3[nH]2)N(C(=O)c2nc(N(C)C)sc2-c2cccc(Cl)c2)C1 [Ex. 3.41] | 0.7 | 7
COc1cc(C(=O)N2CCC[C@H]2c2nc3ccc(SC)cc3[nH]2)c(-n2nccn2)cc1OC [Ex. 1.155] | 36 | 16
Cc1ccc(-c2nc(C)sc2C(=O)N2CC[C@H](C)[C@H]2c2nc3c(C)cc(Cl)cc3[nH]2)cc1 [Ex. 4.96] | 31 | 996
C=C1CN(C(=O)c2ccccc2-n2nccn2)C(C)(c2nc3cc(OC)ccc3[nH]2)C1 (stereo not shown) [Ex. 6.155] | 649 | 105
COc1cc2nc(C3CCCN3C(=O)c3nc(C)sc3-c3cccc(Cl)c3)[nH]c2cc1OC (stereo not shown) [Ex. 1.110] | 164 | 46
CSc1ccc2[nH]c([C@@H]3CCCN3C(=O)c3nc(C)sc3-c3cccc(Cl)c3)nc2c1 [Ex. 1.15] | 67 | 45
COc1ccc(-c2cccc(OC(F)(F)F)c2)c(C(=O)N2CCC[C@@]2(C)c2nc3c(C)c(Cl)ccc3[nH]2)c1F [Ex. 5.309] | 23 | 21
C=C1C[C@@H](c2nc3cccc(C)c3[nH]2)N(C(=O)c2nc(C)sc2-c2ccc(Cl)cc2)C1 [Ex. 6.109] | 112 | 7
COc1cc(C(=O)N2CCC[C@@]2(C)c2nc3cc(C(F)(F)F)c(Cl)cc3[nH]2)c(-n2nccn2)cc1OC [Ex. 5.135] | 10 | 49
CO[C@@H]1C[C@@H](c2nc3ccc(Cl)c(C)c3[nH]2)N(C(=O)c2c(C)cccc2-n2nccn2)C1 [Ex. 3.14] | 674 | 23

Structure (SMILES) | IC50 [1] [nM] | IC50 [2] [nM]
Cc1ccc(-c2ncccn2)c(C(=O)N2CC[C@H](C)[C@H]2c2nc3cc(Cl)c(C)cc3[nH]2)c1 [Ex. 4.180] | 8 | 304
COc1ccc2[nH]c([C@@H]3CCCN3C(=O)c3nc(C)sc3-c3cccc(Cl)c3)nc2c1 [Ex. 1.9] | 337 | 69
C=C1C[C@@H](c2nc3cc(C(C)(C)C)ccc3[nH]2)N(C(=O)c2cc(C)ccc2-n2cccn2)C1 [Ex. 6.171] | 162 | 19
Cc1ccc(-c2ccccc2C(=O)N2CC[C@H](C)[C@H]2c2nc3c(C)cc(Cl)cc3[nH]2)cc1 [Ex. 4.92] | 5 | 212
C=C1C[C@@H](c2nc3cc(Cl)c(C(F)(F)F)cc3[nH]2)N(C(=O)c2cc(C(F)(F)F)ccc2-n2nccn2)C1 [Ex. 6.184] | 67 | 73
C=C1C[C@@H](c2nc3cc(C)c(C)cc3[nH]2)N(C(=O)c2ccccc2-n2nccn2)C1 [Ex. 6.194] | 51 | 5
C=C1C[C@@H](c2nc3cc(OC)ccc3[nH]2)N(C(=O)c2nc(C)sc2-c2ccccc2Cl)C1 [Ex. 6.34] | 398 | 66
Cc1nc(C(=O)N2CCC[C@@]2(C)c2nc3c(C)cccc3[nH]2)c(-c2cccc(Cl)c2)s1 [Ex. 5.4] | 10 | 6
Cc1ccc(-c2ncccn2)c(C(=O)N2CC[C@H](C)[C@H]2c2nc3ccc(Cl)c(C)c3[nH]2)c1 [Ex. 4.181] | 3 | 230
CSc1ccc2nc([C@@H]3CCCN3C(=O)c3cncnc3-c3ccc(Cl)c(Cl)c3)[nH]c2c1 [Ex. 1.52] | 737 | 121
COc1cccc(-c2ccc(C)cc2C(=O)N2CCC[C@@]2(C)c2nc3cc(C)c(C)cc3n2CC2CC2)c1 [Ex. 7.49] | 96 | 173
C[C@@]1(c2nc3cc(C(F)(F)F)ccc3[nH]2)CCCN1C(=O)c1ccccc1-n1cccn1 [Ex. 5.176] | 389 | 1070
COc1cc2nc([C@]3(C)CCCN3C(=O)c3ccc(C)cc3-n3nccn3)[nH]c2cc1OC [Ex. 5.70] | 31 | 83
Cc1nc(C(=O)N2CCC[C@H]2c2nc3cc(Cl)c(C)cc3[nH]2)c(-c2ccccc2)s1 [Ex. 1.143] | 14 | 16
COc1ccc(-c2ccc(C(F)(F)F)cc2)c(C(=O)N2CCC[C@@]2(C)c2nc3ccc(Cl)c(C)c3[nH]2)c1F [Ex. 5.305] | 35 | 41
C=C1C[C@@H](c2nc3cccc(C)c3[nH]2)N(C(=O)c2cc(OC)ccc2-n2nccn2)C1 [Ex. 6.111] | 272 | 14
C=C1C[C@@H](c2nc3c(Br)cccc3[nH]2)N(C(=O)c2nc(C)sc2-c2ccc(C)c(C)c2)C1 [Ex. 6.50] | 5 | 1
Cc1nc(C(=O)N2CC(F)(F)C[C@H]2c2nc3c(C)c(Cl)ccc3[nH]2)c(-c2ccccc2)s1 [Ex. 2.8] | 70 | 51
C=C1C[C@@H](c2nc3cc(C(C)(C)C)ccc3[nH]2)N(C(=O)c2ccc(C)cc2-n2nccn2)C1 [Ex. 6.166] | 33 | 4
COc1cc2nc([C@@H]3[C@@H](C)CCN3C(=O)c3nc(C)sc3-c3ccc(F)cc3)[nH]c2cc1OC [Ex. 4.54] | 21 | 2320

Structure (SMILES) | IC50 [1] [nM] | IC50 [2] [nM]
C=C1C[C@@H](c2nc3cc(C(C)(C)C)ccc3[nH]2)N(C(=O)c2cc(C(F)(F)F)ccc2-n2nccn2)C1 [Ex. 6.168] | 261 | 54
CSc1ccc2nc([C@@H]3CCCN3C(=O)c3cc(Cl)ccc3-n3nccn3)[nH]c2c1 [Ex. 1.149] | 143 | 9
Cc1ccc(-n2nccn2)c(C(=O)N2CCC[C@@]2(C)c2nc3c(F)c(F)ccc3[nH]2)n1 [Ex. 5.205] | 149 | 852
C=C1C[C@@H](c2nc3c(SC)cccc3[nH]2)N(C(=O)c2nc(C)sc2-c2ccc(C)c(C)c2)C1 [Ex. 6.49] | 3 | 1
Cc1ccc(-c2ccccc2)c(C(=O)N2CCC[C@@]2(C)c2nc3c(C)c(C)c(Br)cc3[nH]2)c1 [Ex. 5.270] | 7 | 9
Cc1ccc(-c2ccccn2)c(C(=O)N2CCC[C@@]2(C)c2nc3cc(OC(F)(F)F)ccc3[nH]2)c1 [Ex. 5.239] | 35 | 594
COc1ccc(-c2ccc(C)cc2)c(C(=O)N2CCC[C@@]2(C)c2nc3ccc(Cl)c(C)c3[nH]2)c1F [Ex. 5.302] | 28 | 42
C=C1C[C@@H](c2nc3cc(OC)ccc3[nH]2)N(C(=O)c2cc(C)sc2-c2ccc(C)c(C)c2)C1 [Ex. 6.36] | 15 | 2
CSc1cccc2nc([C@@H]3CCCN3C(=O)c3cnc(C)nc3-c3ccc(C)c(C)c3)[nH]c12 [Ex. 1.85] | 5 | 23
Cc1ccc(-c2ccc(F)cc2C)c(C(=O)N2CCC[C@@]2(C)c2nc3cc(C)c(C)cc3[nH]2)c1 [Ex. 5.91] | 217 | 1290
Cc1ccc(C(=O)N2CCC[C@@]2(C)c2nc3cc(OC(F)(F)F)ccc3[nH]2)c(-c2cccnc2)c1 [Ex. 5.241] | 54 | 1000
COCCn1c([C@]2(C)CCCN2C(=O)c2cc(C)ccc2-c2ccccc2F)nc2cc(C)c(C)cc21 [Ex. 7.54] | 87 | 270
Cc1ccc(-c2ccc(C)cc2C(=O)N2CCC[C@@]2(C)c2nc3cc(C)c(C)cc3[nH]2)cc1 [Ex. 5.100] | 17 | 27
Cc1ccc(-n2cccn2)c(C(=O)N2CCC[C@@]2(C)c2nc3cc(C(F)(F)F)c(Cl)cc3[nH]2)n1 [Ex. 5.143] | 7 | 82
CSc1cccc2[nH]c([C@@H]3CCCN3C(=O)c3c(-n4nccn4)ccc(C)c3F)nc12 [Ex. 1.174] | 68 | 87
COc1cc(C(=O)N2CCC[C@@]2(C)c2nc3cc(C(F)(F)F)ccc3[nH]2)c(-n2nccn2)cc1OC [Ex. 5.174] | 59 | 133
Cc1ccc(-n2cccn2)c(C(=O)N2CCC[C@@]2(C)c2nc3c(F)c(F)ccc3[nH]2)c1 [Ex. 5.201] | 265 | 861
Cc1ccc(-n2nccn2)c(C(=O)N2CCC[C@@]2(C)c2nc3c(C)c(C)c(Br)cc3[nH]2)c1 [Ex. 5.266] | 1 | 1
CSc1ccc2nc([C@@H]3CCCN3C(=O)c3cnc(C)nc3-c3ccccc3)[nH]c2c1 [Ex. 1.57] | 76 | 22
